The source of these data is patent publication US12312330B2, “1-((S)-1-(3-chloro-5-fluoro-2-((4-(1h-pyrazol-1-yl)-2-methylquinolin-8-yloxy)methyl)phenyl)ethyl)-imidazolidine-2,4-dione derivatives and related compounds as bradykinin (BK) B2 receptor antagonist for treating skin diseases” (Pharvaris GmbH, priority 2019, dated 2025).

A value given as a limit tells only on which side of the number the result lay.

The target of this assay is T1, human bradykinin B2 receptor (hB2R) (Homo sapiens, UniProt P30411).
T1 sequence (P30411 1-391): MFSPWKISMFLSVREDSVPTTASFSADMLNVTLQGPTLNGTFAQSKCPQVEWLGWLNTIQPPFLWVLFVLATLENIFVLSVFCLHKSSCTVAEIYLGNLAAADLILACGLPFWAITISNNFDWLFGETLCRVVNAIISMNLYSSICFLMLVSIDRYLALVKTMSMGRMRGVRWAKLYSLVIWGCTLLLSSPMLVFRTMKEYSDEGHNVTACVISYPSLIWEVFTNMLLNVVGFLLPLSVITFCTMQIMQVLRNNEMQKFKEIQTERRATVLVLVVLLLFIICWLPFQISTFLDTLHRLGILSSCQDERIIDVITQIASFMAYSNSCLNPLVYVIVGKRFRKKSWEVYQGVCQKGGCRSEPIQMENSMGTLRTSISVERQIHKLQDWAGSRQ
The experiment in a line: human bradykinin B2 receptor calcium mobilization (hB2R-CaM) assay. In kind it is cell-based. The following applies: antagonism of bradykinin (EC80) induced calcium mobilization, B2 Bradykinin Receptor Stable Cell Line HTS041C, 25 min pre-incubation; read-out: IC50-value towards human bradykinin B2 receptor (hB2R). The source says:
The following cell-based human bradykinin B2 receptor calcium mobilization (hB2R-CaM) assay was used to determine the antagonistic activity of compounds selected from the example compounds Nos. 1 to 107 towards human bradykinin B2 receptor (hB2R). The assay is defined herein as a standard in vitro B2 receptor activity assay, which can be used to determine IC50 values of the compounds according to the present invention, e. g. the compounds shown in Examples 1-13.
The antagonistic activity of compounds according to the present invention was investigated with the hB2R-CaM assay using the B2 Bradykinin Receptor Stable Cell Line HTS041C (Eurofins, St. Charles MO) and the FLIPR Calcium 6 Assay Kit (Molecular Devices, Wokingham, UK) according to the instructions of the providers. CaM assay measurements were performed with a Flexstation 3 System (Molecular Devices) which allows the precise addition of compounds (B2R antagonists) and bradykinin (B2R agonist) to the cells and adjacent continuous recording of the time-dependent CaM assay signals.
HTS041C cells were cultured in high glucose DMEM cell culture medium (Lonza) supplemented with 10% heat-inactivated FBS (PAN Biotech), 10 mM HEPES, Penicillin/Streptomycin (200 U/mL, 200 μg/mL), lx non-essential amino acids (Lonza), and 250 μg/mL G418 (Invivogen) in cell incubator at 37° C. in a 5% CO2 atmosphere. One day before the CaM assay experiments cells were seeded in 200 μL DMEM cell culture medium with reduced FBS (5%) and without G418 on clear bottom black 96 well plates (ThermoFisher #165305). Cell starvation was carried out by incubation (37° C., 5% CO2) of 70.000 cells/well for 24 h to 28 h. Immediately prior calcium dye-loading the medium was carefully aspirated and cells were washed with Hank's balanced salt solution (HBSS, Gibco) containing Ca^2+, Mg^2+ and 20 mM HEPES, adjusted to pH 7.4 (HBSS+).
For calcium dye-loading one FLIPR 6 assay aliquot was dissolved in 20 mL HBSS+. 150 μL of the dye loading solution was added to cell plate and incubated for 120 min at 37° C. and 5% CO2. After dye loading the cell plate was immediately transferred to the pre-warmed (37° C.) Flexstation 3 System for CaM assaying.
Freshly prepared compound (B2 receptor antagonists) dilution series (8 pt, n=2) and bradykinin (B2 receptor agonist) solution in non-binding plates (Costar) were transferred to the Flexstation System (source plate) shortly before starting the experiment. Bradykinin was added in EC80 concentration determined in n>3 preliminary experiments with 8 pt concentration response curves (n=8)). CaM assay was executed by Flexstation 3 System starting with recording of calcium-sensitive dye fluorescence in bottom-read Flex modus with ex/em=485 nm/525 nm, cut off(em)=515 nm After 20 s, 50 μL of 4-fold concentrated compound dilutions were added to the cells resulting in a final DMSO (Sigma) concentration of 0.1% in the cell plate. CaM signals were monitored for 80 s after additions for detection of potential agonistic activities. Prior to bradykinin stimulus compound- and vehicle-treated cells were incubated for 25 min at 37° C. within the Flexstation System. Then 50 μL of a 5-fold concentrated bradykinin solution (HBSS+, 0.1% DMSO) was added to trigger CaM signals (Read out: Max-Min values) which were measured for 80 s post bradykinin stimulus.
IC50 determinations were performed by 4 parameter logistic model curve fitting of the 8 pt (n=2) compound concentration response curves using XLFIT (IDBS) software.
(Calcium assays in cells follow changes in intracellular calcium, usually with a dye or a luminescent sensor.)
For orientation: IC50 means the concentration that inhibits the measured activity by half. Regarding `Cc1cc(-n2cc(F)cn2)c2cccc(OCc3c(Cl)cc(F)cc3[C@H](C)N3CC(=O)N(C)[C@@H](C)C3=O)c2n1` [Compound No. 12, (S)-1-((S)-1-(3-chloro-5-fluoro-2-((4-(4-fluoro-1H-pyrazol-1-yl)-2-methylquinolin-8-yloxy)methyl)phenyl)ethyl)-3,4-dimethylpiperazine-2,5-dione], the IC50 was ≤ 10 nM. On to `Cc1cc(-n2cc(F)cn2)c2cccc(OCc3c(Cl)cc(F)cc3[C@H](C)N3CCCC3=O)c2n1` [compound 13], for which the IC50 lay within 11 to 100 nM.

Consider `Cc1cc(-n2cc(F)cn2)c2cccc(OCc3c(Cl)cc(F)cc3[C@H](C)N3CC(=O)N(C(C)C)C3=O)c2n1` [compound 14], for which the IC50 lay in the range of 11 to 100 nM. With `Cc1cc(-n2cc(F)cn2)c2cccc(OCc3c(Cl)cc(F)cc3[C@H](C)N3CC(=O)N(CCO)C3=O)c2n1` [compound 15], the IC50 is ≤ 10 nM.

In the case of `Cc1cc(-n2cc(F)cn2)c2cccc(OCc3c(Cl)cc(F)cc3[C@H](C)N3CCCCC3=O)c2n1` [compound 16], the IC50 was 11 to 100 nM. Turning to `Cc1cc(-n2cc(F)cn2)c2cccc(OCc3c(Cl)cc(F)cc3[C@H](C)N3CC(=O)N(C4CC4)C3=O)c2n1` [compound 17], the IC50 is 11 to 100 nM. To `Cc1cc(-n2cc(F)cn2)c2cccc(OCc3c(Cl)cc(F)cc3[C@H](C)N3CCOCC3=O)c2n1` [compound 18] belongs 11 to 100 nM; to `Cc1cc(-n2cc(F)cn2)c2cccc(OCc3c(Cl)cc(F)cc3[C@H](C)N3CC(=O)NC3=O)c2n1` [compound 19], 11 to 100 nM.

As to `CNC(=O)CN1C(=O)CN([C@@H](C)c2cc(F)cc(Cl)c2COc2cccc3c(-n4cc(F)cn4)cc(C)nc23)C1=O` [compound 20], the IC50 fell in the range of 11 to 100 nM. With `Cc1cc(-n2cc(F)cn2)c2cccc(OCc3c(Cl)cc(F)cc3[C@H](C)N3CC(=O)N(CC(=O)N(C)C)C3=O)c2n1` [compound 21], the IC50 was in the range of 11 to 100 nM. `Cc1cc(-n2cc(F)cn2)c2cccc(OCc3c(Cl)cc(F)cc3[C@H](C)N3CC(=O)N(CC(=O)O)C3=O)c2n1` [compound 22]: the IC50 fell in the range of 11 to 100 nM. For the compound `Cc1cc(-n2cc(F)cn2)c2cccc(OCc3c(Cl)cc(F)cc3[C@H](C)N3CC(=O)N(CCN)C3=O)c2n1` [compound 23], the concentration for half-maximal inhibition (IC50) was in the range of 11 to 100 nM. In the case of `Cc1cc(-n2cc(F)cn2)c2cccc(OCc3c(Cl)cc(F)cc3[C@H](C)N3CC(=O)N(CCN(C)C)C3=O)c2n1` [compound 24], the IC50 fell in the range of 11 to 100 nM. To `Cc1cc(-n2cc(F)cn2)c2cccc(OCc3c(Cl)cc(F)cc3[C@H](C)N3CC(=O)NCC3=O)c2n1` [compound 25] belongs 11 to 100 nM; to `Cc1cc(-c2ncnn2C)c2cccc(OCc3c(Cl)cc(F)cc3[C@H](C)N3CCCCC3=O)c2n1` [compound 26], ≤ 10 nM; to `Cc1cc(-c2ncnn2C)c2cccc(OCc3c(Cl)cc(F)cc3[C@H](C)N3CCCC3=O)c2n1` [compound 27], ≤ 10 nM.

With `Cc1cc(-n2cc(F)cn2)c2cccc(OCc3c(Cl)cc(F)cc3[C@H](C)N3CC[C@H](O)C3=O)c2n1` [compound 28], the IC50 lay within 101 to 500 nM. Take `Cc1cc(-c2ncnn2C)c2cccc(OCc3c(Cl)cc(F)cc3[C@H](C)N3CCOCC3=O)c2n1` [compound 34]: the IC50 was ≤ 10 nM.

As to `Cc1cc(-n2cc(F)cn2)c2cccc(OCc3c(Cl)cc(F)cc3[C@H](C)N3CC[C@H](Cl)C3=O)c2n1` [compound 37], the IC50 is ≤ 10 nM. Take `Cc1cc(-n2cc(F)cn2)c2cccc(OCc3c(Cl)cc(F)cc3[C@H](C)N3C[C@H](C)OCC3=O)c2n1` [compound 38]: the IC50 lay in the range of 11 to 100 nM. `Cc1cc(-n2cc(F)cn2)c2cccc(OCc3c(Cl)cc(F)cc3[C@H](C)N3C[C@@H](C)OCC3=O)c2n1` [compound 39]: the IC50 is 11 to 100 nM. For `Cc1cc(-c2ncnn2C)c2cccc(OCc3c(Cl)cc(F)cc3[C@H](C)N3C[C@@H](C)OCC3=O)c2n1` [compound 40], the IC50 is ≤ 10 nM. Next, `Cc1cc(-c2ncnn2C)c2cccc(OCc3c(Cl)cc(F)cc3[C@H](C)N3C[C@H](C)OCC3=O)c2n1` [compound 41]: ≤ 10 nM; `Cc1cc(-n2cc(F)cn2)c2cccc(OCc3c(Cl)cc(F)cc3[C@H](C)N3CC[C@@H](O)C3=O)c2n1` [compound 42]: 11 to 100 nM. As for `Cc1cc(-c2ncnn2C)c2cccc(OCc3c(Cl)cc(F)cc3[C@H](C)N3CC[C@@H](O)C3=O)c2n1` [compound 43], the IC50 fell in the range of 11 to 100 nM. Next, `Cc1cc(-c2ncnn2C)c2cccc(OCc3c(Cl)cc(F)cc3[C@H](C)N3CC[C@H](Cl)C3=O)c2n1` [compound 44]: ≤ 10 nM; `Cc1cc(-n2cc(F)cn2)c2cccc(OCc3c(Cl)cc(F)cc3[C@H](C)N3C[C@@H](O)CCC3=O)c2n1` [compound 45]: ≤ 10 nM. Next, `Cc1cc(-n2cc(F)cn2)c2cccc(OCc3c(Cl)cc(F)cc3[C@H](C)N3CC(=O)N(C)CC3=O)c2n1` [compound 46]: ≤ 10 nM; `Cc1cc(-c2ncnn2C)c2cccc(OCc3c(Cl)cc(F)cc3[C@H](C)N3CC(=O)N(C)CC3=O)c2n1` [compound 47]: 11 to 100 nM; `Cc1cc(-n2cc(F)cn2)c2cccc(OCc3c(Cl)cc(F)cc3[C@H](C)N3CCNC(=O)C3=O)c2n1` [compound 50]: ≤ 10 nM.

In the case of `Cc1cc(-n2cc(F)cn2)c2cccc(OCc3c(Cl)cc(F)cc3[C@H](C)N3CCNCC3=O)c2n1` [compound 57], the IC50 is 11 to 100 nM. With `Cc1cc(-n2cc(F)cn2)c2cccc(OCc3c(Cl)cc(F)cc3[C@H](C)N3CC(C)CC3=O)c2n1` (stereo partly drawn) [compound 62], the IC50 was 11 to 100 nM.

On to `Cc1cc(-c2ncnn2C)c2cccc(OCc3c(Cl)cc(F)cc3[C@H](C)N3CC(C)CC3=O)c2n1` (stereo partly drawn) [compound 63], for which the IC50 is ≤ 10 nM.

On to `Cc1cc(-n2cc(F)cn2)c2cccc(OCc3c(Cl)cc(F)cc3[C@H](C)N3CCC(C)(C)C3=O)c2n1` [compound 64], for which the IC50 lay in the range of 11 to 100 nM. On to `Cc1cc(-c2ncnn2C)c2cccc(OCc3c(Cl)cc(F)cc3[C@H](C)N3CCC(C)(C)C3=O)c2n1` [compound 65], for which the IC50 lay within 11 to 100 nM. `CCC1CCC(=O)N([C@@H](C)c2cc(F)cc(Cl)c2COc2cccc3c(-n4cc(F)cn4)cc(C)nc23)C1` (stereo partly drawn) [compound 66]: the IC50 lay in the range of 11 to 100 nM. Consider `CCC1CCC(=O)N([C@@H](C)c2cc(F)cc(Cl)c2COc2cccc3c(-c4ncnn4C)cc(C)nc23)C1` (stereo partly drawn) [compound 67], for which the IC50 is ≤ 10 nM.

On to `Cc1cc(-c2ncnn2C)c2cccc(OCc3c(Cl)cc(F)cc3[C@H](C)N3C[C@H](C)NC(=O)C3=O)c2n1` [compound 68], for which the IC50 is ≤ 10 nM. With `Cc1cc(-c2ncnn2C)c2cccc(OCc3c(Cl)cc(F)cc3[C@H](C)N3CC[C@H](N)C3=O)c2n1` [compound 69], the IC50 fell in the range of 11 to 100 nM.

Turning to `Cc1cc(-n2cc(F)cn2)c2cccc(OCc3c(Cl)cc(F)cc3[C@H](C)N3C[C@@H](O)CC3=O)c2n1` [compound 72], the IC50 was ≤ 10 nM. Consider `Cc1cc(-c2ncnn2C)c2cccc(OCc3c(Cl)cc(F)cc3[C@H](C)N3C[C@@H](O)CC3=O)c2n1` [compound 73], for which the half-maximal inhibitory concentration (IC50) is ≤ 10 nM. Consider `Cc1cc(-c2ncnn2C)c2cccc(OCc3c(Cl)cc(F)cc3[C@H](C)N3CC(=O)N(C)[C@@H](C)C3=O)c2n1` [compound 74], for which the half-inhibitory concentration (IC50) fell in the range of 11 to 100 nM.
